In patent US9187749B2, “Methods for modulating factor 12 expression” (Isis Pharmaceuticals, Inc., priority 2011, dated 2015):
e = 2'-O-(2-methoxyethyl) (MOE); d = 2'-deoxy (DNA)

Assays:
mice [1] = test: Vascular leakage, Evans Blue in plasma, captopril-induced (Example 4); assay type: in vivo, mouse; conditions: HOE-140 30 μg ip, percentage increase or decrease vs Group 1 PBS
Experimental: Groups 4, 5, 6, 7, 8, and 9 consisted of 8 mice each and were treated with 2.5 mg/kg, 5 mg/kg, 10 mg/kg, 20 mg/kg, 40 mg/kg, or 80 mg/kg (corresponding to 5 mg/kg, 10 mg/kg, 20 mg/kg, 40 mg/kg, 80 mg/kg, or 160 mg/kg per week), respectively, of ISIS 410944 administered subcutaneously twice a week for 3 weeks. At the end of the treatment period, the mice of all the groups were intraperitoneally administered 20 μg of captopril. Groups 4-9 served as the experimental treatment groups for examining the effect of varying doses of ISIS 410944 on captopril-induced vascular permeability.
All the groups were then injected with 30 mg/kg of Evans Blue solution in the tail vein. The mice were sacrificed 30 min after the Evans Blue solution administration and colons, feet, ears, and intestines were harvested. Blood samples were taken through cardiac puncture.
The blood drawn through cardiac puncture was immediately mixed with 3 times the volume of ice-cold ethanol. The solution was centrifuged at 15,000 g for 20 minutes at 4° C. to remove cell debris and precipitated plasma proteins. The ethanol extracts were further purified by ultra-filtration through a 10 kDa MWCO filter. The color intensity of the ethanol extracted plasma solution was then measured at OD620nm. The results are presented in Table 7 as percentage increase or decrease of the OD values of the Group 1 PBS control.

Factor 12 mRNA = test: Liver RT-PCR of Factor 12 mRNA, C1-INH ASO-induced angioedema model (Example 9); assay type: in vivo, mouse; conditions: all groups given ISIS 461756 12.5 mg/kg sc twice a week, test ASO 40 mg/kg sc twice a week 3 weeks, vs PBS control not treated with ISIS 461756
Experimental: (§1) Vascular permeability induced by ISIS 461756, an antisense oligonucleotide which targets murine C1 inhibitor mRNA, increases vascular permeability in mice and replicates the pathology of hereditary angioedema. The effect of ISIS 410944 on this model was evaluated.
(§2) One group of 8 mice was treated with 40 mg/kg ISIS 410944 administered subcutaneously twice a week for 3 weeks (weekly dose of 80 mg/kg). A second group of 8 mice was treated with 40 mg/kg of the control oligonucleotide, ISIS 141923, administered subcutaneously twice a week for 3 weeks (weekly dose of 80 mg/kg). A third group of 8 mice was treated with PBS administered subcutaneously twice a week for 3 weeks. On day 14, all the groups were treated with 12.5 mg/kg ISIS 461756 administered subcutaneously twice a week for 3 weeks (weekly dose of 25 mg/kg). A control group of mice was treated with PBS administered subcutaneously twice a week for 3 weeks but was not administered ISIS 461756.
(§3) At the end of the treatment period, all the groups were injected with 30 mg/kg of Evans Blue solution into the tail vein. The mice were sacrificed 30 min after the Evans Blue solution administration and colons, feet, ears, and intestines were harvested. The liver was also harvested for RNA analysis.
(§4) RNA was isolated from the liver for RT-PCR analysis of C1-INH and Factor 12 mRNAs. […]

C1-INH mRNA = test: Liver RT-PCR of C1-INH mRNA, C1-INH ASO-induced angioedema model (Example 9); assay type: in vivo, mouse; conditions: all groups given ISIS 461756 12.5 mg/kg sc twice a week, test ASO 40 mg/kg sc twice a week 3 weeks, vs PBS control not treated with ISIS 461756
Experimental: as §1, §2, §3, §4

mice [2] = test: Evans Blue vascular permeability, ISIS 461756-induced model (Example 9); assay type: in vivo, mouse; conditions: all groups given ISIS 461756 12.5 mg/kg sc twice a week; test ASO 40 mg/kg sc twice a week 3 weeks; vs untreated PBS control
Experimental: as §1, §2, §3
The harvested tissues from the feet, colon, and intestine were placed in formamide solution overnight to leach out the Evans Blue dye. The formamide solution containing feet tissue was heated to 55° C. and left overnight. The color intensity of the dye-infused formamide solution was then measured at OD600nm. The data is presented in Table 20 as percent increase or reduction compared to the PBS control not treated with ISIS 461756.

Factor 12 = test: Spectrozyme Factor 12a based amidolytic assay for Factor 12 activation in plasma (Example 8); assay type: in vivo; conditions: mouse plasma; for % F12 activation compared to the PBS control: dextran sulfate
Experimental: The effect of antisense inhibition of kallikrein (KLKB1) mRNA on Factor 12 protein activation was evaluated.
Group 1 consisted of 8 mice and was treated with PBS administered subcutaneously twice a week for 3 weeks. No other treatment was administered to Group 1 which served as a control group to measure Factor 12 activation.
Groups 2, 3, 4, 5, and 6 consisted of 8 mice each and were treated with 2.5 mg/kg, 5 mg/kg, 10 mg/kg, 20 mg/kg, or 40 mg/kg (corresponding to 5 mg/kg, 10 mg/kg, 20 mg/kg, 40 mg/kg, or 80 mg/kg per week), respectively of ISIS 482584 administered subcutaneously twice a week for 3 weeks. Groups 2-6 served as the treatment groups for measuring the effect of ISIS 482584 on Factor 12 activation.
At the end of the treatment period, plasma was harvested from the mice for the Spectrozyme® Factor 12a based amidolytic assay for Factor 12 in plasma.
Plasma (5 μL) was added to 85 μL of PBS with 1 ug/ml dextran sulfate (500 kDa) in a 96 well polypropelene microplate and the solution was incubated for 5 minutes at room temperature. Spectrozyme® FXIIa (10 μL of a 2 mM solution) and 0.2 mM KALLISTOP™ solution was added and the absorbance kinetic was measured at 405 nm. Factor 12 activation was measured in the linear phase of absorbance accumulation. The results are presented in Table 18 as a percentage of Factor 12 activation measured in the PBS control sample.

Substance | Percent inhibition of mRNA expression, Factor 12 mRNA (Factor 12 mRNA) | Percent change in vascular permeability, Colon (mice [2]) | Percent change in vascular permeability, Feet (mice [2]) | Percent change in vascular permeability, Intestines (mice [2]) | further results
HOE-140 |  |  |  |  | Percentage of OD620 nm of Evans Blue dye compared to the PBS basal control to measure vascular leakage, Plasma (mice [1]): 70%
ISIS 141923: control oligonucleotide, a 5-10-5 MOE gapmer with no known murine target, CCTTCCCTGAAGGTTCCTCC; SEQ ID NO: 38 (sugars from the 5' end e5 d10 e5, backbone and methylation of C not given here) | 0% | 2% | 80% | 14% | Percent inhibition of mRNA expression, C1-INH mRNA (C1-INH mRNA): 79%
ISIS 461756: 5-10-5 MOE gapmer AAAGTGGTTGATACCCTGGG (SEQ ID NO: 37) which targets murine C1 inhibitor mRNA; induces vascular permeability (sugars from the 5' end e5 d10 e5, backbone and methylation of C not given here) | 0% | 13% | 70% | 27% | 
ISIS 482584: 5-10-5 MOE gapmer targeting kallikrein (KLKB1), GGCATATTGGTTTTTGGAAT; SEQ ID NO: 39 (sugars from the 5' end e5 d10 e5, backbone and methylation of C not given here) |  |  |  |  | % F12 activation compared to the PBS control (Factor 12; 5 mg/kg/wk sc 3 weeks): 82%; % F12 activation compared to the PBS control (Factor 12; 10 mg/kg/wk sc 3 weeks): 63%; % F12 activation compared to the PBS control (Factor 12; 20 mg/kg/wk sc 3 weeks): 47%; % F12 activation compared to the PBS control (Factor 12; 40 mg/kg/wk sc 3 weeks): 24%; % F12 activation compared to the PBS control (Factor 12; 80 mg/kg/wk sc 3 weeks): 14%; activation of Factor 12 (Factor 12; 5-80 mg/kg/wk sc 3 weeks): decreased activation of Factor 12
